Measured values reported in the supplement of paper PMC10307832.

What was measured:
Assay in all cases: relative viability (nuclei count vs DMSO), 5 days (fraction); higher = more cells survive
HCC-78 = system: HCC-78
Outline: (§1)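 Values are medians from duplicate plates. Each reflects relative viability, defined as the nuclei count of treated wells over that of vehicle wells. Lung cancer cell lines in 1536-well plates were pin-tool dosed one day after seeding with one drug alone or with a fixed anchor-drug dose plus five library-drug doses (not always all listed) in √10 steps, then fixed, stained and imaged at 4× after 5 days.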

NCI-H1975 = system: NCI-H1975
Outline: as §1

LXF-289 = system: LXF-289
Outline: as §1

PC-3 [JPC-3] = system: PC-3 [JPC-3]
Outline: as §1

LC-2-ad = system: LC-2-ad
Outline: as §1

LCLC-97TM1 = system: LCLC-97TM1
Outline: as §1

NCI-H838 = system: NCI-H838
Outline: as §1

NCI-H1651 = system: NCI-H1651
Outline: as §1

SK-MES-1 = system: SK-MES-1
Outline: as §1

LK-2 = system: LK-2
Outline: as §1

ChaGo-K-1 = system: ChaGo-K-1
Outline: as §1

NCI-H2087 = system: NCI-H2087
Outline: as §1

NCI-H596 = system: NCI-H596
Outline: as §1

LU99A = system: LU99A
Outline: as §1

NCI-H1355 = system: NCI-H1355
Outline: as §1

BEN = system: BEN
Outline: as §1

NCI-H1666 = system: NCI-H1666
Outline: as §1

NCI-H1944 = system: NCI-H1944
Outline: as §1

## Nc1ccn([C@@H]2O[C@H](CO)[C@@H](O)[C@@H]2O)c(=O)n1 [Cytarabine] + CC1(C)CCC(c2ccc(Cl)cc2)=C(CN2CCN(c3ccc(C(=O)NS(=O)(=O)c4ccc(N[C@H](CCN5CCOCC5)CSc5ccccc5)c(S(=O)(=O)C(F)(F)F)c4)cc3)CC2)C1 [Navitoclax] (partner 0.5 µM)
HCC-78; first compound 0.005 µM
  relative viability: 0.879
HCC-78; first compound 0.01581 µM
  relative viability: 0.652
HCC-78; first compound 0.05 µM
  relative viability: 0.684
HCC-78; first compound 0.1581 µM
  relative viability: 0.364
HCC-78; first compound 0.5 µM
  relative viability: 0.219
NCI-H1975; first compound 0.005 µM
  relative viability: 0.944
NCI-H1975; first compound 0.01581 µM
  relative viability: 1.26
NCI-H1975; first compound 0.05 µM
  relative viability: 1.1
NCI-H1975; first compound 0.1581 µM
  relative viability: 0.567
NCI-H1975; first compound 0.5 µM
  relative viability: 0.359
LXF-289; first compound 0.005 µM
  relative viability: 0.805
LXF-289; first compound 0.01581 µM
  relative viability: 0.944
LXF-289; first compound 0.05 µM
  relative viability: 0.564
LXF-289; first compound 0.1581 µM
  relative viability: 0.395
LXF-289; first compound 0.5 µM
  relative viability: 0.253
PC-3 [JPC-3]; first compound 0.005 µM
  relative viability: 0.753
PC-3 [JPC-3]; first compound 0.01581 µM
  relative viability: 0.774
PC-3 [JPC-3]; first compound 0.05 µM
  relative viability: 0.7
PC-3 [JPC-3]; first compound 0.1581 µM
  relative viability: 0.605
PC-3 [JPC-3]; first compound 0.5 µM
  relative viability: 0.556
LC-2-ad; first compound 0.005 µM
  relative viability: 0.385
LC-2-ad; first compound 0.01581 µM
  relative viability: 0.328
LC-2-ad; first compound 0.05 µM
  relative viability: 0.268
LC-2-ad; first compound 0.1581 µM
  relative viability: 0.2
LC-2-ad; first compound 0.5 µM
  relative viability: 0.188
LCLC-97TM1; first compound 0.005 µM
  relative viability: 0.401
LCLC-97TM1; first compound 0.01581 µM
  relative viability: 0.283
LCLC-97TM1; first compound 0.05 µM
  relative viability: 0.171
LCLC-97TM1; first compound 0.1581 µM
  relative viability: 0.107
LCLC-97TM1; first compound 0.5 µM
  relative viability: 0.115
NCI-H838; first compound 0.005 µM
  relative viability: 1.29
NCI-H838; first compound 0.01581 µM
  relative viability: 1.18
NCI-H838; first compound 0.05 µM
  relative viability: 0.816
NCI-H838; first compound 0.1581 µM
  relative viability: 0.446
NCI-H838; first compound 0.5 µM
  relative viability: 0.262
NCI-H1651; first compound 0.005 µM
  relative viability: 0.993
NCI-H1651; first compound 0.01581 µM
  relative viability: 1.18
NCI-H1651; first compound 0.05 µM
  relative viability: 1.24
NCI-H1651; first compound 0.1581 µM
  relative viability: 0.625
NCI-H1651; first compound 0.5 µM
  relative viability: 0.3
SK-MES-1; first compound 0.005 µM
  relative viability: 0.957
SK-MES-1; first compound 0.01581 µM
  relative viability: 0.869
SK-MES-1; first compound 0.05 µM
  relative viability: 0.408
SK-MES-1; first compound 0.1581 µM
  relative viability: 0.22
SK-MES-1; first compound 0.5 µM
  relative viability: 0.178
LK-2; first compound 0.005 µM
  relative viability: 0.527
LK-2; first compound 0.01581 µM
  relative viability: 0.425
LK-2; first compound 0.05 µM
  relative viability: 0.316
LK-2; first compound 0.1581 µM
  relative viability: 0.191
LK-2; first compound 0.5 µM
  relative viability: 0.194
ChaGo-K-1; first compound 0.005 µM
  relative viability: 0.74
ChaGo-K-1; first compound 0.01581 µM
  relative viability: 0.505
ChaGo-K-1; first compound 0.05 µM
  relative viability: 0.453
ChaGo-K-1; first compound 0.1581 µM
  relative viability: 0.364
ChaGo-K-1; first compound 0.5 µM
  relative viability: 0.37
NCI-H2087; first compound 0.005 µM
  relative viability: 0.973
NCI-H2087; first compound 0.01581 µM
  relative viability: 1.04
NCI-H2087; first compound 0.05 µM
  relative viability: 0.924
NCI-H2087; first compound 0.1581 µM
  relative viability: 0.542
NCI-H2087; first compound 0.5 µM
  relative viability: 0.452
NCI-H596; first compound 0.005 µM
  relative viability: 0.874
NCI-H596; first compound 0.01581 µM
  relative viability: 0.894
NCI-H596; first compound 0.05 µM
  relative viability: 0.611
NCI-H596; first compound 0.1581 µM
  relative viability: 0.558
NCI-H596; first compound 0.5 µM
  relative viability: 0.413
LU99A; first compound 0.005 µM
  relative viability: 0.906
LU99A; first compound 0.01581 µM
  relative viability: 0.826
LU99A; first compound 0.05 µM
  relative viability: 0.771
LU99A; first compound 0.1581 µM
  relative viability: 0.726
LU99A; first compound 0.5 µM
  relative viability: 0.56
NCI-H1355; first compound 0.005 µM
  relative viability: 0.897
NCI-H1355; first compound 0.01581 µM
  relative viability: 0.811
NCI-H1355; first compound 0.05 µM
  relative viability: 0.819
NCI-H1355; first compound 0.1581 µM
  relative viability: 0.325
NCI-H1355; first compound 0.5 µM
  relative viability: 0.203
BEN; first compound 0.005 µM
  relative viability: 0.059
BEN; first compound 0.01581 µM
  relative viability: 0.0619
BEN; first compound 0.05 µM
  relative viability: 0.159
BEN; first compound 0.1581 µM
  relative viability: 0.0433
BEN; first compound 0.5 µM
  relative viability: 0.0457
NCI-H1666; first compound 0.005 µM
  relative viability: 0.755
NCI-H1666; first compound 0.01581 µM
  relative viability: 0.796
NCI-H1666; first compound 0.05 µM
  relative viability: 0.718
NCI-H1666; first compound 0.1581 µM
  relative viability: 0.41
NCI-H1666; first compound 0.5 µM
  relative viability: 0.355
NCI-H1944; first compound 0.005 µM
  relative viability: 0.605
NCI-H1944; first compound 0.01581 µM
  relative viability: 0.363
NCI-H1944; first compound 0.05 µM
  relative viability: 0.268
NCI-H1944; first compound 0.1581 µM
  relative viability: 0.198
NCI-H1944; first compound 0.5 µM
  relative viability: 0.201
